Assay results published in US8729120B2, “Adjunctive therapy for depression” (SK Biopharmaceuticals Co., Ltd., priority 2004, dated 2014).

Key:
Format in all cases: in vivo
humans = test: Placebo controlled study in humans, change in total MADRS (ITT, LOCF); conditions: for Change from Baseline in total MADRS, Mean (SD): ITT LOCF, depression rating scale
Mice [1] = test: Tail Suspension in Mice
Mice [2] = test: Reversal of Isolation-Induced Aggression in Mice
Mice [3] = test: Forced-Swim Test (FST) in Mice
Mice [4] = test: Tetrabenazine Reversal in Mice
Rats = test: Forced-Swim Test (FST) in Rats
Mice [5] = test: Reserpine Reversal in Mice

| SMILES | Change from Baseline in total MADRS, Mean (SD) (humans; 20 mg) | antidepressant effects (Mice [1]) | antidepressant effects (Mice [2]) | antidepressant effects (Mice [3]) | antidepressant effects (Mice [4]) | antidepressant effects (Rats) | Change from Baseline in total MADRS, Mean (SD) (humans; 200 mg) | Change from Baseline in total MADRS, Mean (SD) (humans; 400 mg) | decrease in depression rating scores (MADRS) compared to placebo and paroxetine (humans; Table 1) | antidepressant effects in large placebo controlled study (humans; compared with Paroxetine) | antidepressant effects (Mice [5]) |
| --- | --- | --- | --- | --- | --- | --- | --- | --- | --- | --- | --- |
| Fc1ccc([C@@H]2CCNC[C@H]2COc2ccc3c(c2)OCO3)cc1 (relative stereo) [Paroxetine, trans-(−)-3-[(1,3-benzodioxol-5-yloxy)methyl]-4-(4-fluorophenyl)piperidine, reference compound] | −14.1 (10.71) | – | – | – | – | – | – | – | – | – | – |
| Cl.NC(=O)OC[C@H](N)Cc1ccccc1 [Test Compound, (R)-(beta-amino-benzenepropyl) carbamate monohydrochloric acid] | – | demonstrated antidepressant effects | demonstrated antidepressant effects | demonstrated antidepressant effects | demonstrated antidepressant effects | demonstrated antidepressant effects | −12.1 (11.12) | −12.4 (11.12) | greater decrease in depression rating scores (MADRS) as compared to placebo but not as great as the active control, paroxetine | significant antidepressant effects | demonstrated antidepressant effects |
